Experimental data as given in patent US6642392B1 (priority 1997, dated 2003).

Legend:
Type in all cases: in vivo
[1] = test system: Eiysiphe graminis f. sp. tritici; assay: Test A: wheat powdery mildew, preventive spray on wheat seedlings; details: for Test A disease control rating (100 = 100% disease control, 0 = no disease control): wheat seedlings sprayed to run-off, inoculated the following day, rating relative to controls, unmarked compounds (standard test rate); for Test A disease control rating: wheat powdery mildew, 100 = 100% disease control, 0 = no control relative to controls, unmarked entries (standard test concentration)
Procedure: (§1) The resulting test suspensions were then used in the following tests. […]
The test suspension was sprayed to the point of run-off on wheat seedlings. The following day the seedlings were inoculated with a spore dust of Eiysiphe graminis f. sp. tritici, (the causal agent of wheat powdery mildew) and incubated in a growth chamber at 20° C. for 7 days, after which disease ratings were made.
(§2) Results for Tests A-E are given in Table A. In the table, a rating of 100 indicates 100% disease control and a rating of 0 indicates no disease control (relative to the controls). A dash (-) indicates no test results. ND indicates disease control not determined due to phytotoxicity.

[2] = test system: Puccinia recondita; assay: Test B: wheat leaf rust, preventive spray on wheat seedlings; details: for Test B disease control rating (100 = 100% disease control, 0 = no disease control): wheat seedlings sprayed to run-off, inoculated the following day, rating relative to controls, unmarked compounds (standard test rate); for Test B disease control rating: wheat leaf rust, 100 = 100% disease control, 0 = no control, unmarked entries (standard test concentration)
Procedure: as §1
(§3) The test suspension was sprayed to the point of run-off on wheat seedlings. The following day the seedlings were inoculated with a spore suspension of Puccinia recondita (the causal agent of wheat leaf rust) and incubated in a saturated atmosphere at 20° C. for 24 h, and then moved to a growth chamber at 20° C. for 6 days, after which disease ratings were made.
as §2

[3] = test system: Pyricularia oryzae; details: for Test C disease control rating (100 = 100% disease control, 0 = no disease control): rice seedlings sprayed to run-off, inoculated the following day, rating relative to controls, unmarked compounds (standard test rate); for Test C disease control rating: rice blast, 100 = 100% disease control, 0 = no control, unmarked entries (standard test concentration)
[4] = test system: Phytophthora infestans; details: for Test D disease control rating (100 = 100% disease control, 0 = no disease control): tomato seedlings sprayed to run-off, inoculated the following day, rating relative to controls, unmarked compounds (standard test rate); for Test D disease control rating: tomato late blight, 100 = 100% disease control, 0 = no control, unmarked entries (standard test concentration)
[5] = test system: Botrytis cinerea; assay: Test E: gray mold, preventive spray on cucumber seedlings; details: for Test E disease control rating: gray mold on cucumber, 100 = 100% disease control, 0 = no control, unmarked entries (standard test concentration)
Procedure: The resulting test suspensions were then used in the following tests. Spraying these 200 ppm test suspensions to the point of run-off on the test plants is the equivalent of a rate of 500 g/ha.
as §3, with “cucumber” for “wheat”, “Botrytis cinerea” for “Puccinia recondita”, “gray mold on many crops)” for “wheat leaf rust)”, “48” for “24”, “and” for “and then”, “5” for “6”
as §2

SMILES | Test A disease control rating (100 = 100% disease control, 0 = no disease control) [1] [%] | Test B disease control rating (100 = 100% disease control, 0 = no disease control) [2] [%] | Test C disease control rating (100 = 100% disease control, 0 = no disease control) [3] [%] | Test D disease control rating (100 = 100% disease control, 0 = no disease control) [4] [%] | Test E disease control rating (100 = 100% disease control, 0 = no disease control) ([5]; cucumber seedlings sprayed to run-off, inoculated the following day, rating relative to controls, unmarked compounds (standard test rate)) [%] | Test A disease control rating [1] [%] | Test B disease control rating [2] [%] | Test C disease control rating [3] [%] | Test D disease control rating [4] [%] | Test E disease control rating [5] [%]
CCC1(C(=O)NC(C)COc2c(F)ccc(F)c2F)C(C)C1(Cl)Cl (centres unmarked) [compound 233] | 62 | 0 | 94 | 9 | 6 | – | – | – | – | –
CCC1(C(=O)NC(C)COc2cc(F)ccc2Cl)C(C)C1(Cl)Cl (centres unmarked) [compound 253] | 59 | 0 | 100 | 0 | – | – | – | – | – | –
CC(COc1cc(Cl)ccc1F)NC(=O)C(C#N)C(C)C(C)(C)C (mixture of isomers) [compound 199] | – | – | – | – | – | 85 | 68 | 97 | 5 | –
C[C@H](COc1cc(Cl)ccc1F)NC(=O)C(C#N)C(C)(C)C (single isomer, unassigned) [198a] | – | – | – | – | – | 75 | 28 | 100 | 5 | –
CCC1(C(=O)NC(C)COc2cccc(Br)c2)C(C)C1(Cl)Cl (mixture of isomers) [85a] | – | – | – | – | – | 55 | 0 | 53 | – | 0
Cc1ccc(F)c(OCC(C)NC(=O)C(C#N)C(C)(C=CF)CF)c1 (mixture of isomers) [compound 226] | 0 | 0 | 100 | 0 | – | – | – | – | – | –
CCC1(C(=O)NC(C)COc2ccccc2C#N)C(C)C1(Cl)Cl (mixture of isomers) [89b] | – | – | – | – | – | 26 | 68 | 91 | – | 47
CC(COc1cc(F)ccc1OC(F)(F)C(F)F)NC(=O)C(C#N)C(C)(C=CF)CF (mixture of isomers) [compound 225] | 91 | 86 | 100 | 5 | – | – | – | – | – | –
CCC1(C(=O)NC(C)COc2cc(F)c(F)cc2Br)C(C)C1(Cl)Cl (centres unmarked) [compound 235] | 0 | 0 | 91 | 0 | – | – | – | – | – | –
CCCc1ccccc1OCC(C)NC(=O)C(C#N)C(C)(C)C (mixture of isomers) [21b] | – | – | – | – | – | 37 | 27 | 99 | – | 0
CCC1(C(=O)NC(C)COc2ccc(F)c(F)c2F)C(C)C1(Cl)Cl (centres unmarked) [compound 238] | 62 | 0 | 74 | 0 | – | – | – | – | – | –
CC(COc1cc(Cl)ccc1F)NC(=O)C(C#N)C(C)(C)C=CF (mixture of isomers) [compound 224] | 85 | 0 | 100 | 5 | – | – | – | – | – | –
CCC1(C(=O)NCCCn2c(Cl)ccc2C#N)C(C)C1(Cl)Cl (centres unmarked) [compound 152] | – | – | – | – | – | 55 | 68 | 86 | – | 0
C[C@H](COc1cc(Cl)ccc1F)NC(=O)C(C#N)C(C)(C)C (single isomer, unassigned) [198b] | – | – | – | – | – | 59 | 28 | 100 | 5 | –
CC(COc1c(Br)cc(F)cc1Br)NC(=O)C(C#N)C(C)(C)C (mixture of isomers) [compound 196] | – | – | – | – | – | 0 | 0 | 86 | 0 | –
CCC1(C(=O)NC(C)COc2ccccc2)C(C)C1(Cl)Cl (mixture of isomers) [77a] | – | – | – | – | – | 73 | 28 | 86 | – | 0
C=CC(C)(C)C(C#N)C(=O)N[C@H](C)COc1cc(Cl)ccc1F (single isomer, unassigned) [200b] | – | – | – | – | – | 0 | 0 | 100 | 5 | –
Cc1ccc(Cl)c(OCC(C)NC(=O)C(C#N)C(C)(C=CF)CF)c1 (mixture of isomers) [compound 227] | 0 | 0 | 100 | 0 | – | – | – | – | – | –
CCC1(C(=O)NC(C)COc2cc(Cl)ccc2F)C(C)C1(Cl)Cl (centres unmarked) [compound 252] | 0 | 0 | 99 | 5 | – | – | – | – | – | –
C=CC(C)(C)C(C#N)C(=O)N[C@H](C)COc1cc(Cl)ccc1F (single isomer, unassigned) [200a] | – | – | – | – | – | 0 | 0 | 100 | 5 | –
C#CC(C)(C)C(C#N)C(=O)NC(C)COc1cc(Cl)ccc1F (mixture of isomers) [compound 320] | 59 | 68 | 100 | 0 | – | – | – | – | – | –
CCC1(C(=O)NCCCn2c(C#N)cc(Cl)c2Cl)C(C)C1(Cl)Cl (centres unmarked) [compound 151] | – | – | – | – | – | 0 | 0 | 91 | – | 0
CC(COc1c(F)c(F)cc(F)c1F)NC(=O)C(C#N)C(C)(C)C (mixture of isomers) [compound 195] | – | – | – | – | – | 85 | 0 | 99 | 32 | –
CC(COc1c(Cl)cc(F)cc1Cl)NC(=O)C(C#N)C(C)(C)C (mixture of isomers) [compound 197] | – | – | – | – | – | 59 | 0 | 86 | 0 | –
CCC1(C(=O)NC(C)COc2ccccc2F)C(C)C1(Cl)Cl (mixture of isomers) [78b] | – | – | – | – | – | 84 | 0 | 99 | – | 0
